Data taken from the NIST ThermoML archive (doi:10.1007/s10765-010-0902-x).

Experiments:
[1] = 298.15 K; 101 kPa; Liquid
[2] = refractive index (Na D-line) (dimensionless); settings: 298.15 K; 101.33 kPa; Liquid; Standard Abbe refractometry
[3] = xn = mol fraction of the nth substance listed; settings: 298.15 K, 101 kPa, Liquid; for viscosity: Capillary tube (Ostwald / Ubbelohde) method
[4] = refractive index (Na D-line) (dimensionless); xn = mol fraction of the nth substance listed; settings: 298.15 K, 101 kPa, Liquid, Standard Abbe refractometry

CCCCCCCl [1-chlorohexane]
Settings | mass density [kg/m3] | refractive index
[1] | 873.39 | –
[2] | – | 1.4171

CCCCCCl [1-chloropentane]
Settings | mass density [kg/m3] | refractive index
[1] | 876.93 | –
[2] | – | 1.4097

CCCCCCCl [1-chlorohexane] + CCCCOC(C)=O
Settings | mass density, [3] [kg/m3] | refractive index, [4] | viscosity, [3] [mPa·s]
x2 = 0 | 873.39 | 1.4171 | –
x2 = 0.0568 | 873.06 | 1.4159 | 0.662
x2 = 0.1099 | 872.97 | 1.4148 | 0.659
x2 = 0.1638 | 872.88 | 1.4137 | 0.657
x2 = 0.2188 | 872.81 | 1.4125 | 0.655
x2 = 0.3237 | 872.8 | 1.4102 | 0.652
x2 = 0.3745 | 872.83 | 1.4091 | 0.651
x2 = 0.4271 | 872.87 | 1.4078 | 0.65
x2 = 0.4773 | 872.98 | 1.4066 | 0.649
x2 = 0.5286 | 873.11 | 1.4053 | 0.648
x2 = 0.6265 | 873.53 | 1.4028 | 0.646
x2 = 0.6753 | 873.78 | 1.4015 | 0.645
x2 = 0.7232 | 874.04 | 1.4001 | 0.645
x2 = 0.8171 | 874.66 | 1.3973 | 0.645
x2 = 0.8631 | 875.01 | 1.3959 | 0.645

CCCCCCCCCl [1-chlorooctane]
Settings | mass density [kg/m3] | refractive index
[1] | 868.71 | –
[2] | – | 1.4282

CCCCOC(C)=O [butyl ethanoate] + CCCCCl
x1 = 1
Settings | mass density [kg/m3] | refractive index
[3] | 876.28 | –
[4] | – | 1.3918

CCCCCl [1-chlorobutane]
Settings | mass density [kg/m3] | refractive index
[1] | 880.87 | –
[2] | – | 1.3996

CCCCCCCCCl [1-chlorooctane] + CCCCOC(C)=O
Settings | mass density, [3] [kg/m3] | refractive index, [4] | viscosity, [3] [mPa·s]
x2 = 0 | 868.71 | 1.4282 | –
x2 = 0.0507 | 868.69 | 1.4271 | 1.032
x2 = 0.1002 | 868.7 | 1.4264 | 1.007
x2 = 0.1498 | 868.74 | 1.4256 | 0.981
x2 = 0.1999 | 868.73 | 1.4247 | 0.959
x2 = 0.3001 | 868.77 | 1.4222 | 0.911
x2 = 0.3496 | 868.82 | 1.4208 | 0.889
x2 = 0.4001 | 868.99 | 1.4192 | 0.867
x2 = 0.4503 | 869.17 | 1.4174 | 0.846
x2 = 0.5 | 869.45 | 1.4156 | 0.825
x2 = 0.6019 | 870.13 | 1.4114 | 0.784
x2 = 0.6999 | 871.1 | 1.4069 | 0.745
x2 = 0.7998 | 872.48 | 1.4018 | 0.708
x2 = 0.8999 | 874.25 | 1.3968 | 0.674

CCCCOC(C)=O [butyl ethanoate] + CCCCCCCCCl
x1 = 1
Settings | mass density [kg/m3] | refractive index
[3] | 876.28 | –
[4] | – | 1.3918

CCCCCCCCl [1-chloroheptane] + CCCCOC(C)=O
Settings | mass density, [3] [kg/m3] | refractive index, [4] | viscosity, [3] [mPa·s]
x2 = 0 | 872.79 | 1.4236 | –
x2 = 0.0505 | 872.6 | 1.4219 | 0.828
x2 = 0.1006 | 872.52 | 1.4203 | 0.815
x2 = 0.1503 | 872.45 | 1.4189 | 0.803
x2 = 0.2014 | 872.41 | 1.4175 | 0.792
x2 = 0.3003 | 872.39 | 1.4147 | 0.77
x2 = 0.3505 | 872.42 | 1.4133 | 0.759
x2 = 0.4007 | 872.48 | 1.4118 | 0.749
x2 = 0.4503 | 872.56 | 1.4103 | 0.739
x2 = 0.5006 | 872.71 | 1.4087 | 0.729
x2 = 0.6001 | 873.07 | 1.4054 | 0.71
x2 = 0.65 | 873.32 | 1.4037 | 0.7
x2 = 0.6996 | 873.64 | 1.402 | 0.691
x2 = 0.7499 | 873.97 | 1.4003 | 0.682
x2 = 0.8001 | 874.32 | 1.3986 | 0.674
x2 = 0.9 | 875.2 | 1.3952 | 0.659

CCCCCCCCl [1-chloroheptane]
Settings | mass density [kg/m3] | refractive index
[1] | 872.79 | –
[2] | – | 1.4236

CCCCCl [1-chlorobutane] + CCCCOC(C)=O
Settings | mass density, [3] [kg/m3] | refractive index, [4] | viscosity, [3] [mPa·s]
x2 = 0 | 880.87 | 1.3996 | –
x2 = 0.0503 | 880.41 | 1.3989 | 0.42
x2 = 0.1111 | 879.89 | 1.3981 | 0.432
x2 = 0.1527 | 879.56 | 1.3976 | 0.441
x2 = 0.2003 | 879.19 | 1.3971 | 0.451
x2 = 0.2996 | 878.52 | 1.3961 | 0.473
x2 = 0.3493 | 878.23 | 1.3956 | 0.484
x2 = 0.3978 | 877.97 | 1.3952 | 0.495
x2 = 0.4508 | 877.72 | 1.3947 | 0.507
x2 = 0.4997 | 877.51 | 1.3943 | 0.519
x2 = 0.55 | 877.31 | 1.3939 | 0.531
x2 = 0.5985 | 877.15 | 1.3936 | 0.543
x2 = 0.6501 | 876.99 | 1.3933 | 0.555
x2 = 0.7002 | 876.84 | 1.393 | 0.568
x2 = 0.7493 | 876.72 | 1.3928 | 0.58
x2 = 0.8042 | 876.6 | 1.3925 | 0.594
x2 = 0.85 | 876.51 | 1.3923 | 0.606
x2 = 0.8991 | 876.43 | 1.3921 | 0.619

CCCCOC(C)=O [butyl ethanoate] + CCCCCCCCl
x1 = 1
Settings | mass density [kg/m3] | refractive index
[3] | 876.28 | –
[4] | – | 1.3918

CCCCOC(C)=O [butyl ethanoate]
Settings | mass density [kg/m3] | refractive index
[1] | 876.28 | –
[2] | – | 1.3918

CCCCOC(C)=O [butyl ethanoate] + CCCCCCl
x1 = 1
Settings | mass density [kg/m3] | refractive index
[3] | 876.28 | –
[4] | – | 1.3918

CCCCCCl [1-chloropentane] + CCCCOC(C)=O
Settings | mass density, [3] [kg/m3] | refractive index, [4] | viscosity, [3] [mPa·s]
x2 = 0 | 876.93 | 1.4097 | –
x2 = 0.05 | 876.71 | 1.4081 | 0.55
x2 = 0.1 | 876.44 | 1.4065 | 0.552
x2 = 0.15 | 876.14 | 1.405 | 0.554
x2 = 0.2 | 875.89 | 1.4036 | 0.557
x2 = 0.3 | 875.46 | 1.401 | 0.563
x2 = 0.35 | 875.29 | 1.3998 | 0.567
x2 = 0.4 | 875.2 | 1.3987 | 0.571
x2 = 0.5 | 875.11 | 1.3967 | 0.58
x2 = 0.6 | 875.15 | 1.395 | 0.591
x2 = 0.7019 | 875.34 | 1.3936 | 0.603
x2 = 0.75 | 875.48 | 1.3931 | 0.61
x2 = 0.7998 | 875.62 | 1.3926 | 0.616
x2 = 0.9 | 875.94 | 1.3921 | 0.631

CCCCOC(C)=O [butyl ethanoate] + CCCCCCCl
x1 = 1
Settings | mass density [kg/m3] | refractive index
[3] | 876.28 | –
[4] | – | 1.3918
